# Literature values in US20250228797A1, “SYNERGIC AND STABLE PHARMACEUTICAL COMPOSITION OF AN NSAID AND AN OPIOID ANALGESIC FOR PAIN AND INFLAMMATION” (LABORATORIOS SILANES, S.A. DE C.V., priority 2024, published 2025).
# What was measured:
# [1] = tested on: moderate to severe post-operatory pain; details: intravenous or intramuscular
# [2] = in vivo
compound,measurement,setting,value
"COc1cccc([C@@]2(O)CCCC[C@@H]2CN(C)C)c1 [tramadol, (1R,2R)-2-[(dimethylamino)methyl]-1-(3-methoxyphenyl)cyclohexan-1-ol]",Analgesic potency relative to nalbuphine,[1],one-fifth
same,Analgesic potency relative to pethidine (meperidine),[1],equivalent
same,Incidence of serious adverse reactions,[2],less than 1%
